Measured values: patent US5466671A, “Apidaecin-type peptide antibiotics with improved activities and/or different antibacterial spectrum” (priority 1994, dated 1995)
Residues, ends and D or L forms follow the SMILES beside them.

Assays:
Haemophilus influenzae = assay: Inhibition zone assay (agar plate); assay type: cell-based; conditions: 50 nanomoles/well, 3 mm wells
S. typhimurium = assay: Minimal inhibitory concentration (liquid culture); conditions: inoculum 8 × 10^6 CFU/ml; a-b = highest concentration with growth - lowest without growth
Enterobacter cloacae = assay: Inhibition zone assay (agar plate); assay type: cell-based; conditions: for inhibition zone diameter (number of plus signs): agar plate, 50 nanomoles/well, 3 mm wells
A. calcoaceticus = assay: Minimal inhibitory concentration (liquid culture); conditions: inoculum 16 × 10^6 CFU/ml; a-b = highest concentration with growth - lowest without growth
Y. enterocolitica = assay: Minimal inhibitory concentration (liquid culture); conditions: inoculum 5000 CFU/ml; a-b = highest concentration with growth - lowest without growth
Yersinia enterocolitica = assay: Inhibition zone assay (agar plate); assay type: cell-based; conditions: 50 nanomoles/well, 3 mm wells
E. coli 25922 = assay: Minimal inhibitory concentration (liquid culture); conditions: inoculum 1100 CFU/ml; a-b = highest concentration with growth - lowest without growth
Morganella morganii = assay: Inhibition zone assay (agar plate); assay type: cell-based; conditions: 50 nanomoles/well, 3 mm wells
[1] = test system: Escherichia coli (11775 Apid R); assay type: cell-based; conditions: agar plate, 50 nanomoles/well, 3 mm wells
Rhizobium meliloti = assay: Inhibition zone assay (agar plate); assay type: cell-based; conditions: 50 nanomoles/well, 3 mm wells
E. coli 11775 = assay: Minimal inhibitory concentration (liquid culture); conditions: a-b = highest concentration with growth - lowest without growth
M. morganii = assay: Minimal inhibitory concentration (liquid culture); conditions: inoculum 400 CFU/ml; a-b = highest concentration with growth - lowest without growth
Pseudomonas syringae = assay: Inhibition zone assay (agar plate); assay type: cell-based; conditions: agar plate, 50 nanomoles/well, 3 mm wells
Erwinia amylovora = assay: Inhibition zone assay (agar plate); assay type: cell-based; conditions: for inhibition zone diameter (number of plus signs): agar plate, 50 nanomoles/well, 3 mm wells
[2] = test system: Agrobacterium tumefaciens; assay: Inhibition zone assay (agar plate); assay type: cell-based; conditions: for inhibition zone diameter (number of plus signs): agar plate, 50 nanomoles/well, 3 mm wells
Salmonella typhimurium = assay: Inhibition zone assay (agar plate); assay type: cell-based; conditions: for inhibition zone diameter (number of plus signs): agar plate, 50 nanomoles/well, 3 mm wells
[3] = test system: Escherichia coli (ATCC11775); assay: Inhibition zone assay (agar plate); assay type: cell-based; conditions: for inhibition zone diameter (number of plus signs): agar plate, 50 nanomoles/well, 3 mm wells
[4] = test system: Acinetobacter calcoaceticus; assay: Inhibition zone assay (agar plate); assay type: cell-based; conditions: for inhibition zone diameter (number of plus signs): agar plate, 50 nanomoles/well, 3 mm wells
E. coli 23802 = assay: Minimal inhibitory concentration (liquid culture); conditions: inoculum 5000 CFU/ml; a-b = highest concentration with growth - lowest without growth
Francisella tularensis = assay type: cell-based; conditions: agar plate, 50 nanomoles/well, 3 mm wells
E. coli Apid^R = assay: Minimal inhibitory concentration (liquid culture); assay type: cell-based; conditions: inoculum 1000 CFU/ml; a-b = highest concentration with growth - lowest without growth
Excerpt: For details see `Experimental Procedures`.

Salmonella typhi = assay type: cell-based; conditions: for inhibition zone diameter (number of plus signs): agar plate, 50 nanomoles/well, 3 mm wells
Klebsiella pneumoniae = assay: Inhibition zone assay (agar plate); assay type: cell-based; conditions: for inhibition zone diameter (number of plus signs): agar plate, 50 nanomoles/well, 3 mm wells
strains tested = assay type: cell-based; conditions: agar plate
gram positives = conditions: cited from earlier work
gram negative bacteria = conditions: many gram negative bacteria; cited from earlier work
Campylobacter jejuni = assay: Inhibition zone assay (agar plate); assay type: cell-based; conditions: 50 nanomoles/well, 3 mm wells
Legionella pneumophila = assay type: cell-based; conditions: agar plate, 50 nanomoles/well, 3 mm wells
Shigella dysenteriae = assay type: cell-based
Escherichia coli (K514) = assay type: cell-based; conditions: agar plate, 50 nanomoles/well, 3 mm wells
E. coli D22 = assay type: cell-based; conditions: 50 nanomoles per well (3 mm diameter)
[5] = 50 nanomoles per well (3 mm diameter)

| SMILES | inhibition zone diameter (number of plus signs) (Haemophilus influenzae) | minimal inhibitory concentration (MIC) (S. typhimurium) [µg/mL] | inhibition zone diameter (number of plus signs) (Enterobacter cloacae) | minimal inhibitory concentration (MIC) (A. calcoaceticus) [µg/mL] | minimal inhibitory concentration (MIC) (Y. enterocolitica) [µg/mL] | minimal inhibitory concentration (MIC) (E. coli 25922) [µg/mL] | inhibition zone diameter (number of plus signs) (Morganella morganii) | inhibition zone diameter (number of plus signs) [1] | inhibition zone diameter (number of plus signs) (Rhizobium meliloti) | minimal inhibitory concentration (MIC) (E. coli 11775; inoculum 16 × 10^6 CFU/ml) [µg/mL] | minimal inhibitory concentration (MIC) (E. coli 11775; inoculum 1200 CFU/ml) [µg/mL] | minimal inhibitory concentration (MIC) (M. morganii) [µg/mL] | inhibition zone diameter (number of plus signs) (Pseudomonas syringae) | inhibition zone diameter (number of plus signs) (Erwinia amylovora) | inhibition zone diameter (number of plus signs) [2] | inhibition zone diameter (number of plus signs) (Salmonella typhimurium) | inhibition zone diameter (number of plus signs) [3] | inhibition zone diameter (number of plus signs) [4] | minimal inhibitory concentration (MIC) (E. coli 23802) [µg/mL] | antibacterial activity, overall (inhibition zone) (strains tested) | also measured |
| --- | --- | --- | --- | --- | --- | --- | --- | --- | --- | --- | --- | --- | --- | --- | --- | --- | --- | --- | --- | --- | --- |
| CC[C@H](C)[C@H](NC(=O)[C@@H]1CCCN1C(=O)[C@H](C)NC(=O)[C@@H]1CCCN1C(=O)[C@H](CCCNC(=N)N)NC(=O)[C@@H]1CCCN1C(=O)[C@H](CCCNC(=N)N)NC(=O)[C@@H](N)CC(N)=O)C(=O)N[C@@H](CCC(N)=O)C(=O)N1CCC[C@H]1C(=O)N[C@@H](CCCNC(=N)N)C(=O)N1CCC[C@H]1C(=O)N1CCC[C@H]1C(=O)N[C@@H](Cc1c[nH]cn1)C(=O)N1CCC[C@H]1C(=O)N[C@@H](CCCNC(=N)N)C(=O)N[C@@H](CC(C)C)C(=O)O [Cd 1-, Asn--Arg--Pro--Arg--Pro--Ala--Pro--Ile--Gln--Pro--Arg--Pro--Pro--His--Pro--Arg--Leu] (H-NRPRPAPIQPRPPHPRL-OH) | +++ ((+++) 10-14 mm) | 0.5 to 1 | +++ ((+++) 10-14 mm) | > 20 | 5 to 10 | 0.5 to 1 | ++ ((++) 7-9 mm) | ++ ((++) 7-9 mm) | ++++ ((++++) 15-19 mm) | 0.5 to 1 | 0.5 to 1 | 20 to 40 | ++++ ((++++) 15-19 mm) | ++++ ((++++) 15-19 mm) | +++ ((+++) 10-14 mm) | +++ ((+++) 10-14 mm) | +++ ((+++) 10-14 mm) | ++ ((++) 7-9 mm) | 5 to 10 |  | inhibition zone diameter (number of plus signs) (Yersinia enterocolitica): ++ ((++) 7-9 mm); inhibition zone diameter (number of plus signs) (Francisella tularensis): ++ ((++) 7-9 mm); minimal inhibitory concentration (MIC) (E. coli Apid^R): > 40 µg/mL; inhibition zone diameter (number of plus signs) (Salmonella typhi): ++ ((++) 7-9 mm); inhibition zone diameter (number of plus signs) (Klebsiella pneumoniae): ++ ((++) 7-9 mm) |
| CC(C)C[C@H](NC(=O)[C@H](CCCNC(=N)N)NC(=O)[C@@H]1CCCN1C(=O)[C@H](Cc1c[nH]cn1)NC(=O)[C@@H]1CCCN1C(=O)[C@@H](NC(=O)[C@H](CCCNC(=N)N)NC(=O)[C@@H]1CCCN1C(=O)[C@@H]1CCCN1C(=O)[C@@H](NC(=O)[C@H](CCC(N)=O)NC(=O)[C@H](CCC(N)=O)NC(=O)[C@@H]1CCCN1C(=O)[C@H](CCCNC(=N)N)NC(=O)[C@@H]1CCCN1C(=O)[C@H](CCCCN)NC(=O)CN)C(C)C)[C@@H](C)O)C(=O)O [HoGT, G K P R P Q Q V P P R T P H P R L] (H-GKPRPQQVPPRTPHPRL-OH) |  |  |  |  |  |  |  |  |  |  |  |  |  |  |  |  |  |  |  | lack detectable antibacterial activity |  |
| CC[C@H](C)[C@H](NC(=O)[C@H](Cc1ccc(O)cc1)NC(=O)[C@@H](NC(=O)[C@@H]1CCCN1C(=O)[C@H](CCCNC(=N)N)NC(=O)[C@H](CC(N)=O)NC(=O)[C@H](CC(N)=O)NC(=O)CN)C(C)C)C(=O)N1CCC[C@H]1C(=O)N[C@@H](CCC(N)=O)C(=O)N1CCC[C@H]1C(=O)N[C@@H](CCCNC(=N)N)C(=O)N1CCC[C@H]1C(=O)N1CCC[C@H]1C(=O)N[C@@H](Cc1cnc[nH]1)C(=O)N1CCC[C@H]1C(=O)N[C@@H](CCCNC(=N)N)C(=O)N[C@@H](CC(C)C)C(=O)O [Apidaecin] (H-GNNRPVYIPQPRPPHPRL-OH) |  |  |  |  |  |  |  |  |  |  |  |  |  |  |  |  |  |  |  |  | effect on gram positives (gram positives): unaffected; dose inhibiting viability (gram negative bacteria): nanomolar doses |
| CC[C@H](C)[C@H](NC(=O)[C@@H]1CCCN1C(=O)[C@H](C)NC(=O)[C@@H]1CCCN1C(=O)[C@H](CCCNC(=N)N)NC(=O)[C@@H]1CCCN1C(=O)[C@H](CCCCN)NC(=O)[C@@H](N)CC(N)=O)C(=O)N[C@@H](CCCCN)C(=O)N1CCC[C@H]1C(=O)N[C@@H](CCCNC(=N)N)C(=O)N1CCC[C@H]1C(=O)N1CCC[C@H]1C(=O)N[C@@H](Cc1c[nH]cn1)C(=O)N1CCC[C@H]1C(=O)N[C@@H](CCCNC(=N)N)C(=O)N[C@@H](CC(C)C)C(=O)O [Cd 2-, Asn--Lys--Pro--Arg--Pro--Ala--Pro--Ile--Lys--Pro--Arg--Pro--Pro--His--Pro--Arg--Leu] (H-NKPRPAPIKPRPPHPRL-OH) | ++ ((++) 7-9 mm) | 1 to 5 | +++ ((+++) 10-14 mm) | 10 to 20 | > 40 | 0.5 to 1 | ++ ((++) 7-9 mm) | ++ ((++) 7-9 mm) | +++ ((+++) 10-14 mm) | 0.5 to 1 | 0.5 to 1 | 1 to 5 | +++ ((+++) 10-14 mm) | +++ ((+++) 10-14 mm) | ++++ ((++++) 15-19 mm) | + ((+) 5-6 mm) | +++ ((+++) 10-14 mm) | + ((+) 5-6 mm) | 10 to 20 |  | inhibition zone diameter (number of plus signs) (Campylobacter jejuni): +++ ((+++) 10-14 mm); inhibition zone diameter (number of plus signs) (Legionella pneumophila): ++ ((++) 7-9 mm); inhibition zone diameter (number of plus signs) (Shigella dysenteriae; agar plate, 50 nanomoles/well, 3 mm wells): ++ ((++) 7-9 mm); inhibition zone diameter (number of plus signs) (Escherichia coli (K514)): ++ ((++) 7-9 mm); minimal inhibitory concentration (MIC) (E. coli Apid^R): 5 to 10 µg/mL; inhibition zone diameter (number of plus signs) (Salmonella typhi): + ((+) 5-6 mm); inhibition zone diameter (number of plus signs) (Klebsiella pneumoniae): ++ ((++) 7-9 mm) |
| CC[C@H](C)[C@H](NC(=O)[C@@H]1CCCN1C(=O)[C@@H](NC(=O)[C@H](CCC(N)=O)NC(=O)[C@@H]1CCCN1C(=O)[C@H](CO)NC(=O)[C@@H]1CCCN1C(=O)[C@H](CCCNC(=N)N)NC(=O)[C@@H](N)CO)C(C)C)C(=O)N[C@@H](CCCNC(=N)N)C(=O)N1CCC[C@H]1C(=O)N[C@@H](CO)C(=O)N[C@@H](CCC(N)=O)C(=O)N1CCC[C@H]1C(=O)N[C@@H](CCCNC(=N)N)C(=O)N1CCC[C@H]1C(=O)N[C@@H](CCC(N)=O)C(=O)N1CCC[C@H]1C(=O)N[C@@H](Cc1ccccc1)C(=O)N[C@@H](CCCCN)C(=O)N1CCC[C@H]1C(=O)N[C@@H](CCCNC(=N)N)C(=O)N1CCC[C@H]1C(=O)N[C@@H](CCC(N)=O)C(=O)N[C@@H](CCC(N)=O)C(=O)N[C@H](C(=O)N1CCC[C@H]1C(=O)N1CCC[C@H]1C(=O)N[C@@H](CCCNC(=N)N)C(=O)N[C@H](C(=O)N1CCC[C@H]1C(=O)N[C@@H](Cc1c[nH]cn1)C(=O)N1CCC[C@H]1C(=O)N[C@@H](CCCNC(=N)N)C(=O)N[C@@H](CC(C)C)C(=O)O)[C@@H](C)O)C(C)C [PAB-FT 1-35, SRPSPQVPIRPSQPRPQPFKPRPQQVPPRTPHPRL] (H-SRPSPQVPIRPSQPRPQPFKPRPQQVPPRTPHPRL-OH) |  |  |  |  |  |  |  |  |  |  |  |  |  |  |  |  |  |  |  | has antibacterial activity | Inhibition zones: in mm diameter (E. coli D22): 14 mm; Inhibition zones: in mm diameter (Enterobacter cloacae; [5]): 11 mm; Inhibition zones: in mm diameter (Erwinia amylovora; [5]): 5 mm; Inhibition zones: in mm diameter (Shigella dysenteriae; [5]): 12 mm; Inhibition zones: in mm diameter [2, 5]: 5 mm; Inhibition zones: in mm diameter (Salmonella typhimurium; [5]): 7 mm; Inhibition zones: in mm diameter [3, 5]: 10 mm; Inhibition zones: in mm diameter [4, 5]: 7 mm; Inhibition zones: in mm diameter (Salmonella typhi; [5]): 14 mm; Inhibition zones: in mm diameter (Klebsiella pneumoniae; [5]): 9 mm |
| CC(C)C[C@H](NC(=O)[C@H](CCCNC(=N)N)NC(=O)[C@@H]1CCCN1C(=O)[C@H](Cc1c[nH]cn1)NC(=O)[C@@H]1CCCN1C(=O)[C@@H](NC(=O)[C@H](CCCNC(=N)N)NC(=O)[C@@H]1CCCN1C(=O)[C@@H]1CCCN1C(=O)[C@@H](NC(=O)[C@H](CCC(N)=O)NC(=O)[C@H](CCC(N)=O)NC(=O)[C@@H]1CCCN1C(=O)[C@H](CCCNC(=N)N)NC(=O)[C@@H]1CCCN1C(=O)[C@H](CCCCN)NC(=O)[C@@H](N)Cc1ccccc1)C(C)C)[C@@H](C)O)C(=O)O [HoFT, F K P R P Q Q V P P R T P H P R L] (H-FKPRPQQVPPRTPHPRL-OH) |  |  |  |  |  |  |  |  |  |  |  |  |  |  |  |  |  |  |  | lack detectable antibacterial activity |  |
